Calls of active or inactive are those of the source. The calls are words filed in the database; no cut-off is given here.
Columns and labels:
[1] = molecular target: Muscarinic acetylcholine receptor M1 (Homo sapiens, UniProt P11229, Y381A)
[2] = molecular target: Endothelin-1 receptor (Homo sapiens, UniProt P25101); assay: Binding affinity to human ETA receptor by radioligand displacement assay
[3] = Binding affinity to sigma receptor by radioligand displacement assay
[4] = molecular target: Histamine H2 receptor (Homo sapiens, UniProt P25021); assay: Binding affinity to human histamine H2 receptor by radioligand displacement assay
[5] = molecular target: Alpha-1B adrenergic receptor (Homo sapiens, UniProt P35368); assay: Binding affinity to human adrenergic Alpha-1B receptor by radioligand displacement assay
Chain of Alpha-1B adrenergic receptor (P35368 whole entry): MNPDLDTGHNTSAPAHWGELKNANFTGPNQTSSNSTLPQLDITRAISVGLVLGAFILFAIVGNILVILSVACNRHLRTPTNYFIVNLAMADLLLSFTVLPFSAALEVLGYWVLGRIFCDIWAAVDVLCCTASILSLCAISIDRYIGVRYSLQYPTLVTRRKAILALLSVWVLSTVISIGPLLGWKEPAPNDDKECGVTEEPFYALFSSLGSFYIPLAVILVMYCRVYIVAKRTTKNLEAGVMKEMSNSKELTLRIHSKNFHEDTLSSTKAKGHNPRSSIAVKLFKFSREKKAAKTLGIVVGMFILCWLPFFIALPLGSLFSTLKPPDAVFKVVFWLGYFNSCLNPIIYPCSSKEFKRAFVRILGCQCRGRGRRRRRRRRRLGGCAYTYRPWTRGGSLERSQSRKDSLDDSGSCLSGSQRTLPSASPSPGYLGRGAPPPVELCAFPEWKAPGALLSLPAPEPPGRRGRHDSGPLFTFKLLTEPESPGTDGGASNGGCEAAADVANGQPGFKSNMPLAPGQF

[6] = molecular target: T1, Muscarinic acetylcholine receptor M3 (Homo sapiens, UniProt P20309); assay: Displacement of [3H]-4-DAMP from human muscarinic M3 receptor expressed in BHK-21 cells; assay type: cell-based
Target sequence in this assay (P20309 whole entry): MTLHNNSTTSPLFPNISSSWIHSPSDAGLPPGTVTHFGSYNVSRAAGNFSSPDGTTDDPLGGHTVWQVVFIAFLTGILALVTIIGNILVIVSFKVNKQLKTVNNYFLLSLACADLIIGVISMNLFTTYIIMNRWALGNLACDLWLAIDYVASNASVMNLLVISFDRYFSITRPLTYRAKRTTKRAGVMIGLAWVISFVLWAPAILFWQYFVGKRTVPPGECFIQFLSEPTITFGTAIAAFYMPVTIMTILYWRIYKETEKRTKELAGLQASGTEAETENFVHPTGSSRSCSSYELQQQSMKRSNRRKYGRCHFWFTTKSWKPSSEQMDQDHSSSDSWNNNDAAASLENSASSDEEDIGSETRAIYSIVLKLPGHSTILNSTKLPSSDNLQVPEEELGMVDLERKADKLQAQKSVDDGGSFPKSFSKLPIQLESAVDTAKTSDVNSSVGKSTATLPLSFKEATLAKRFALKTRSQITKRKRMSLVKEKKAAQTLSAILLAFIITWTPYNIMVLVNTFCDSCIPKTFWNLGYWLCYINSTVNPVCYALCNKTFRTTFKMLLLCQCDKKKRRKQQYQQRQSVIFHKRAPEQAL

[7] = molecular target: T1, Muscarinic acetylcholine receptor M3; assay: Agonist activity at human muscarinic M3 receptor expressed in BHK-21 cells assessed as increase of acetylcholine-induced calcium flux at 10 uM by FLIPR assay relative to acetylcholine; assay type: functional, cell-based
Target sequence in this assay (P20309 whole entry, looked up): as the sequence (P20309 whole entry) above

[8] = molecular target: Acetylcholinesterase (Homo sapiens, UniProt P22303); assay: Binding affinity to human acetylcholine esterase by radioligand displacement assay
[9] = Binding affinity to NMDA receptor PCP binding site by radioligand displacement assay
[10] = molecular target: 5-hydroxytryptamine receptor 1A (Homo sapiens, UniProt P08908); assay: Binding affinity to human 5-HT1A receptor by radioligand displacement assay
[11] = molecular target: Substance-P receptor (Homo sapiens, UniProt P25103); assay: Binding affinity to human NK1 receptor by radioligand displacement assay
Chain of Substance-P receptor (P25103 whole entry): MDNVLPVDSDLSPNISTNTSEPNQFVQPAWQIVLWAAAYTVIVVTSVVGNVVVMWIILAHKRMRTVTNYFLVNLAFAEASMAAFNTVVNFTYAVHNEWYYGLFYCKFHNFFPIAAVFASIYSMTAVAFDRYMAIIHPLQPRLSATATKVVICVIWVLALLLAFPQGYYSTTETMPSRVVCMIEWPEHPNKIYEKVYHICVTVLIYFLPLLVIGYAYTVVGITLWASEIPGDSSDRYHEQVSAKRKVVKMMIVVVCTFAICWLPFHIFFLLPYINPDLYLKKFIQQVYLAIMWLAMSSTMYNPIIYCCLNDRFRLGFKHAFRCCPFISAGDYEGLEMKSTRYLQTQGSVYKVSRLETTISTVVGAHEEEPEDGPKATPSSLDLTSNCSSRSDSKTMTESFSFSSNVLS

[12] = Binding affinity to PDE3 by enzyme assay
[13] = Terminal half life in rat plasma at 1 mg/kg, iv and 2 mg/kg, po; assay type: ADME, organism-based
[14] = molecular target: 5-hydroxytryptamine receptor 7 (Homo sapiens, UniProt P34969); assay: Binding affinity to human 5-HT7 receptor by radioligand displacement assay
Chain of 5-hydroxytryptamine receptor 7 (P34969 whole entry): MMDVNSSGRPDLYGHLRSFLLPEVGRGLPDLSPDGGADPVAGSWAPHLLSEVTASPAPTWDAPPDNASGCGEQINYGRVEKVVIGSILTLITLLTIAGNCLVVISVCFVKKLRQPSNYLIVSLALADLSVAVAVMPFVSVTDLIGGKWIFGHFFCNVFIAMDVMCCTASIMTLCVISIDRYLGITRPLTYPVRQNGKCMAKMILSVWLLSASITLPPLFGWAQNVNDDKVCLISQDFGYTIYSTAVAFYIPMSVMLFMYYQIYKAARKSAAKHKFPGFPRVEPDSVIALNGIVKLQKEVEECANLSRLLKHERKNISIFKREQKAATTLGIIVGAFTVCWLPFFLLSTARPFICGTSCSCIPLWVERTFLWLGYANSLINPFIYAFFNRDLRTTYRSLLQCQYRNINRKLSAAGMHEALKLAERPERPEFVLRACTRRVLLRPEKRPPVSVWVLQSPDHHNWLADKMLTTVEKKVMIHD

[15] = molecular target: T1, Muscarinic acetylcholine receptor M3; assay: Binding affinity to human muscarinic M3 receptor by radioligand displacement assay
Target sequence in this assay (P20309 whole entry): as the sequence (P20309 whole entry) above

[16] = Ratio of brain to plasma AUC in C57/6J mouse at 20 mg/kg, sc; assay type: ADME, organism-based; parameters: dose 20 mg/kg, route subcutaneous
[17] = molecular target: D(3) dopamine receptor (Homo sapiens, UniProt P35462); assay: Binding affinity to human dopamine D3 receptor by radioligand displacement assay
Chain of D(3) dopamine receptor (P35462 whole entry): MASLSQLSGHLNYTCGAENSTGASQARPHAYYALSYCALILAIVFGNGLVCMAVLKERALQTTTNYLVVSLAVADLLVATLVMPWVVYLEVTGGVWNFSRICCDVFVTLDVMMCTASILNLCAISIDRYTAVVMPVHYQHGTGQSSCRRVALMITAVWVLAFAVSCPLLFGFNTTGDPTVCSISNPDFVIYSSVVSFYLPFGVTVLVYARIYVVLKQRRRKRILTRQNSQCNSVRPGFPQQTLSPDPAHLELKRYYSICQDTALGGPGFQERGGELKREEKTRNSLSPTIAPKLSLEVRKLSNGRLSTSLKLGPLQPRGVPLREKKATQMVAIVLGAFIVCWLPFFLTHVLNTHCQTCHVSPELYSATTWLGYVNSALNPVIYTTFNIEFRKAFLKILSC

[18] = Clearance in rat plasma at 1 mg/kg, iv and 2 mg/kg, po; assay type: ADME, organism-based
[19] = Binding affinity to PDE5 by enzyme assay
[20] = molecular target: T2, Muscarinic acetylcholine receptor M5 (Homo sapiens, UniProt P08912); assay: Binding affinity to human muscarinic M5 receptor by radioligand displacement assay
T2 sequence (P08912 whole entry): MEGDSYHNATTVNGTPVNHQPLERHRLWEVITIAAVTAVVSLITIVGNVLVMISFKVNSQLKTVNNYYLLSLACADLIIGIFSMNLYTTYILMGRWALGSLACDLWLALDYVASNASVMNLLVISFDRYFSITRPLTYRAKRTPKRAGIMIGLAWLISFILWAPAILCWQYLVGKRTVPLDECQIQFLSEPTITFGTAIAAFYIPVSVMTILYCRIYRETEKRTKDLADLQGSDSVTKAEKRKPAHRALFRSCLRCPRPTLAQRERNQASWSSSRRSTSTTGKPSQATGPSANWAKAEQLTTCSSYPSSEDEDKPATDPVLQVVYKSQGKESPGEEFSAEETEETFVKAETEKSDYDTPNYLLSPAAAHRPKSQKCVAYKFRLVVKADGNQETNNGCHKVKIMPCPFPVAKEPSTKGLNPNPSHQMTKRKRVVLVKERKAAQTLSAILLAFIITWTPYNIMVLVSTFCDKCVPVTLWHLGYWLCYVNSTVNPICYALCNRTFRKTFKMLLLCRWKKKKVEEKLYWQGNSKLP

[21] = molecular target: T3, Muscarinic acetylcholine receptor M4 (Homo sapiens, UniProt P08173); assay: Binding affinity to human muscarinic M4 receptor by radioligand displacement assay
T3 sequence (P08173 whole entry): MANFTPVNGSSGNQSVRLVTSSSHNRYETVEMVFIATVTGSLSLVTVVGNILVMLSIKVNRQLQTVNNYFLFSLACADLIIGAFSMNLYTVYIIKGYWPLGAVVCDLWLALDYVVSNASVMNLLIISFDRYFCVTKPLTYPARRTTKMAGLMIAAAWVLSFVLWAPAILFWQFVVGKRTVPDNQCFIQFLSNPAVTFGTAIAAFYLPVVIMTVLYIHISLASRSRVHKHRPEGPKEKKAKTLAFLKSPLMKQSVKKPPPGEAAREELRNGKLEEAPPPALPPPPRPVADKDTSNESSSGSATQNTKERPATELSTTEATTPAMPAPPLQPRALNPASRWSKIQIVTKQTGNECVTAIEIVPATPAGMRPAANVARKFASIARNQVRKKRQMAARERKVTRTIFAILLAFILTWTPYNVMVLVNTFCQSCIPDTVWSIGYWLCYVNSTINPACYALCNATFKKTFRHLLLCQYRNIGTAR

[22] = molecular target: Nischarin (Homo sapiens, UniProt Q9Y2I1); assay: Binding affinity to I1 receptor by radioligand displacement assay
Chain of Nischarin (Q9Y2I1 whole entry): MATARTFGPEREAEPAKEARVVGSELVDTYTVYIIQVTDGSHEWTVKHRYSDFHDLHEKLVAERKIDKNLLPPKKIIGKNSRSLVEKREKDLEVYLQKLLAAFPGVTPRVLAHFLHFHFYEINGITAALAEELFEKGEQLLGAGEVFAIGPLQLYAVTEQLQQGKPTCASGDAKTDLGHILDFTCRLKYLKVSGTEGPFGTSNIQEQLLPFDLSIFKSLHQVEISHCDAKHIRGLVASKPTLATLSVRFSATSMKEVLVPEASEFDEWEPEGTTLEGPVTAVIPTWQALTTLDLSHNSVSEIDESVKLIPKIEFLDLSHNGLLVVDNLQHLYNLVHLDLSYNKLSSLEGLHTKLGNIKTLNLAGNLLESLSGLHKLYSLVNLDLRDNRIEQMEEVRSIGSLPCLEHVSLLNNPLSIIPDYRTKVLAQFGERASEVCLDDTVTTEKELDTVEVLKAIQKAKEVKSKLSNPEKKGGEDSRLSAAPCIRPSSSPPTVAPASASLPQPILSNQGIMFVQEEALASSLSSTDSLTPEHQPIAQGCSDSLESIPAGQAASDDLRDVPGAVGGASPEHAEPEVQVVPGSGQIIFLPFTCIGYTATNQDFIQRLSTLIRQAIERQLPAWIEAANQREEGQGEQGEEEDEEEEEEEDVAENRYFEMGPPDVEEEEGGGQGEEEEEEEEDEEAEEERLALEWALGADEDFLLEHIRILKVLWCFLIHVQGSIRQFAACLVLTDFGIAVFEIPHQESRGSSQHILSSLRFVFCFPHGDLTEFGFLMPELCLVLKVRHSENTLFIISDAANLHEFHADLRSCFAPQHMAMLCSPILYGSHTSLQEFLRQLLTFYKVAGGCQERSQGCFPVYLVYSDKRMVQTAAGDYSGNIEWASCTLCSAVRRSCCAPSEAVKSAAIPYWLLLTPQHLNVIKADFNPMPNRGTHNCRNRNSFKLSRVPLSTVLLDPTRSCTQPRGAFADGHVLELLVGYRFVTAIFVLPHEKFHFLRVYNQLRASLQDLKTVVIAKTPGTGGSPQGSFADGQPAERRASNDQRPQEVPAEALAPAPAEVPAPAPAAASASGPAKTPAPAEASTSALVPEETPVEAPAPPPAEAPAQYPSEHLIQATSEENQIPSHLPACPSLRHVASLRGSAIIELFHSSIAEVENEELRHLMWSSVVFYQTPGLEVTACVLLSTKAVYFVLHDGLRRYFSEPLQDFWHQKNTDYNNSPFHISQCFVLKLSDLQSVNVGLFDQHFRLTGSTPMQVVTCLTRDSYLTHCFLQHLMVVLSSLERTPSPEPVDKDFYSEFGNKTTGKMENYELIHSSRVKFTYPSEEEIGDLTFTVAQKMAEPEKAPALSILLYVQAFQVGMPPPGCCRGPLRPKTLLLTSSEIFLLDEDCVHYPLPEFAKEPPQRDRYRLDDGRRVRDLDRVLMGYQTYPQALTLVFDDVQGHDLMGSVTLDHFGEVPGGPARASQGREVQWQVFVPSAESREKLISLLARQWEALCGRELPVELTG

[23] = test system: Mus musculus; assay: Reversal of 60 seconds delay-induced memory decay in C57Bl/6J mouse assessed as positive alteration at 0.31 to […], sc for 1 week by Y-maze test; assay type: functional, organism-based
[24] = molecular target: Sodium-dependent dopamine transporter (Homo sapiens, UniProt Q01959); assay: Binding affinity to human dopamine transporter by radioligand displacement assay
[25] = Drug level in C57/6J mouse brain at 20 mg/kg, sc after 30 mins; assay type: ADME, organism-based; parameters: dose 20 mg/kg, route subcutaneous; conditions: read-out: Drug uptake
[26] = molecular target: 5-hydroxytryptamine receptor 1B (Homo sapiens, UniProt P28222); assay: Binding affinity to 5-HT1B receptor by radioligand displacement assay
[27] = Binding affinity to adrenergic alpha1 receptor by radioligand displacement assay
[28] = Binding affinity to central benzodiazepine receptor by radioligand displacement assay
[29] = molecular target: D(4) dopamine receptor (Homo sapiens, UniProt P21917); assay: Binding affinity to human D4.4 receptor by radioligand displacement assay
Chain of D(4) dopamine receptor (P21917 whole entry): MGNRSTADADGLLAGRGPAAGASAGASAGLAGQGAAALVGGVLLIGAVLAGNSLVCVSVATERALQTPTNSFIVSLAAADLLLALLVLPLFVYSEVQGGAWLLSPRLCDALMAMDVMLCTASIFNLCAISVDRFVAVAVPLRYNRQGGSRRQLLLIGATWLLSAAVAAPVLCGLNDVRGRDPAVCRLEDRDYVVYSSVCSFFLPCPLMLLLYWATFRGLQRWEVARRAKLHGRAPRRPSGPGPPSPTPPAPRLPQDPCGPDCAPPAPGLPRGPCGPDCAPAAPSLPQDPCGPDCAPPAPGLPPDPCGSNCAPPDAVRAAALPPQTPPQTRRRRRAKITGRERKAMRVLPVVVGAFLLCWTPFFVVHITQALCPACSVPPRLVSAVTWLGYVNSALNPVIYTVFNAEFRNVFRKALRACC

[30] = Binding affinity to L-type Ca2+ channel DHP binding site by radioligand displacement assay
[31] = species on record: Homo sapiens; assay: Hepatic blood flow in human; assay type: ADME, organism-based, Liver
[32] = molecular target: Adenosine receptor A2a (Homo sapiens, UniProt P29274); assay: Binding affinity to human adenosine A2A receptor by radioligand displacement assay
[33] = molecular target: D(2) dopamine receptor (Homo sapiens, UniProt P14416); assay: Binding affinity to human D2S agonist site receptor by radioligand displacement assay
[34] = test system: Mus musculus; assay: Reversal of 0 seconds delay-induced memory decay in C57Bl/6J mouse assessed as positive alteration at 0.31 to 20 mg/kg, sc for 1 week by Y-maze test; assay type: functional; conditions: dose mg/kg 0.31-20; route subcutaneous
[35] = molecular target: High affinity choline transporter 1 (Homo sapiens, UniProt Q9GZV3); assay: Binding affinity to human choline transporter (CHT1) by radioligand displacement assay

Chain of Endothelin-1 receptor (P25101 whole entry): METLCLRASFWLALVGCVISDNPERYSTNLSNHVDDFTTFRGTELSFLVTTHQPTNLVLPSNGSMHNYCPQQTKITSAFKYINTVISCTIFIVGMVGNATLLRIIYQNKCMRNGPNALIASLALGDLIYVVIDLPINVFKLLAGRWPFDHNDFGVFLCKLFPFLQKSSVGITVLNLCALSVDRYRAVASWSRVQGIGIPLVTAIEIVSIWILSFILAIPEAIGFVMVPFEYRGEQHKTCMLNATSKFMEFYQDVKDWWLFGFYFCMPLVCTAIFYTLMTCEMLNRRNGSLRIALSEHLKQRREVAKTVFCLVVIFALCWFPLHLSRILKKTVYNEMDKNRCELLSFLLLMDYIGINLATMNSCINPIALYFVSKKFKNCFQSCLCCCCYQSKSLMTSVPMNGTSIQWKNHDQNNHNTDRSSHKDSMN

Structure (SMILES): O=C(Cc1ccccc1)NC1CCN(CCCN2C(=O)COc3ccccc32)CC1
- EC50 [1]: 0.097 µM
- Ki [2]: ≥ 1 µM
- Ki [3]: ≥ 1 µM
- Ki [4]: ≥ 1 µM
- Ki [5]: 0.91 µM
- Ki [6]: 7 µM
- Emax [7]: 1%
- Ki [8]: ≥ 1 µM
- Ki [9]: ≥ 1 µM
- Ki [10]: ≥ 1 µM
- Ki [11]: ≥ 1 µM
- Ki [12]: ≥ 1 µM
- half-life [13]: 48 min
- Ki [14]: ≥ 1 µM
- Ki [15]: ≥ 1 µM
- Kp [16]: 0.35
- Ki [17]: ≥ 1 µM
- clearance [18]: 83.3 mL/min/kg
- Ki [19]: ≥ 1 µM
- Ki [20]: ≥ 1 µM
- Ki [21]: ≥ 1 µM
- Ki [22]: ≥ 1 µM
- Activity [23]: inactive
- Ki [24]: ≥ 1 µM
- concentration at 0.5 h [25]: 440 ng/g
- Ki [26]: ≥ 1 µM
- Ki [27]: ≥ 1 µM
- Ki [28]: ≥ 1 µM
- Ki [29]: ≥ 1 µM
- Ki [30]: ≥ 1 µM
- QH [31]: 1.4 L/min
- Ki [32]: ≥ 1 µM
- Ki [33]: ≥ 1 µM
- Activity [34]: 80%
- Ki [35]: ≥ 1 µM

Reference: ChEMBL document CHEMBL1240489, “Discovery of N-{1-[3-(3-oxo-2,3-dihydrobenzo[1,4]oxazin-4-yl)propyl]piperidin-4-yl}-2-phenylacetamide (Lu AE51090): an allosteric muscarinic M1 receptor agonist with unprecedented selectivity and procognitive potential” (J Med Chem, 2010)
